In patent publication US8436031B2 (priority 2004, dated 2013):

What was measured:
[1] = target: LcrF (VirF) (Yersinia pseudotuberculosis, UniProt Q663J0); assay: biochemical; assay type: binding, Y. pseudotuberculosis
[2] = target: SoxS (Escherichia coli, UniProt P0A9E2); assay: Chemiluminescence DNA binding assay, SoxS; parameters: species or system E. coli; settings: for EC50 for SoxS compared with ARD: relative to ARD
[3] = In vivo toxicity, repeat dose experiments; settings: mice; subcutaneous 25 mg/Kg, two doses on day 1, single dose on days 2-5
Protocol: The in vivo toxicity of Mar inhibitors ATB, BAB, BAF, BBP and BBS were investigated in repeat dose experiments. Mice were given two subcutaneous doses (25 mg/Kg) of a Mar inhibitor on day 1 and a single dose of the compound on days 2-5.

[4] = target: ExsA (Pseudomonas aeruginosa, UniProt P26993); assay: Chemiluminescence DNA binding assay, ExsA; parameters: species or system P. aeruginosa
[5] = target: Rob (Escherichia coli, UniProt P0ACI0); assay: Chemiluminescence DNA binding assay, Rob; settings: E. coli Rob
[6] = target: MarA (Escherichia coli, UniProt P0ACH5); assay: Selective marker (ccdB) under MarA-activated promoter; cell survival under MarA expression (Example 2); assay type: cell-based; parameters: key: *: good inhibition of MarA; **: very good inhibition of MarA; settings: inhibition of MarA; cell survival under conditions of MarA expression
Text: In this example, the expression of a selective marker (e.g., ccdB) is put under the direct control of a promoter activated by MarA (e.g., inaA, galT, or micF). In the absence of MarA, the expression of the selective marker is silent and cells survive. Synthesis of MarA from an inducible plasmid in a bacterial or yeast cell leads to the activation of the inaA promoter, expression of ccdB, and subsequently results in cell death. Compounds that inhibit MarA are those that permit cell survival under conditions of MarA expression. In Table 4, * indicates good inhibition of MarA and ** indicates very good inhibition of MarA.

Chain of MarA (P0ACH5 whole entry, looked up): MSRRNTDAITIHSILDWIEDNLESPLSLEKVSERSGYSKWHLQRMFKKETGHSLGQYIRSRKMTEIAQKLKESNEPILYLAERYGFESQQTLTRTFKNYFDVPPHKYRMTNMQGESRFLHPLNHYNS
Chain of SoxS (P0A9E2 whole entry): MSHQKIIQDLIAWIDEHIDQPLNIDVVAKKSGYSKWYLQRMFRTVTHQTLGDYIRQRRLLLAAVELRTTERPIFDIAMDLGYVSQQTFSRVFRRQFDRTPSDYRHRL
Chain of LcrF (VirF) (Q663J0 1-271): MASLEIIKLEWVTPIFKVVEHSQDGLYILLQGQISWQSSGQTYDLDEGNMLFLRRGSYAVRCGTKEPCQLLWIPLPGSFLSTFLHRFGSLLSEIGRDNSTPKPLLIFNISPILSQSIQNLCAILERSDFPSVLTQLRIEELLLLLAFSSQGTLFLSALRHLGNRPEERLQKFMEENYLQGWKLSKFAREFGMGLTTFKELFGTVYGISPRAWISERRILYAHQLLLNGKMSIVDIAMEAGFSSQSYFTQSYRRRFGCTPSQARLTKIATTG
Chain of ExsA (P26993 whole entry): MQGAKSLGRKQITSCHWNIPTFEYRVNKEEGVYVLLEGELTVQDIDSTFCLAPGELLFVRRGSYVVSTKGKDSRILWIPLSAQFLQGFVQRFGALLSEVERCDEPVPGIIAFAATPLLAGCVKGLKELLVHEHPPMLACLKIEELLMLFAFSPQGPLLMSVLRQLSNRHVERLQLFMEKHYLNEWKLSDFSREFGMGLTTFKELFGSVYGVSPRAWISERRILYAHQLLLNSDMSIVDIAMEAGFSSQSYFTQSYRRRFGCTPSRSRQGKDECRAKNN
Chain of Rob (P0ACI0 whole entry): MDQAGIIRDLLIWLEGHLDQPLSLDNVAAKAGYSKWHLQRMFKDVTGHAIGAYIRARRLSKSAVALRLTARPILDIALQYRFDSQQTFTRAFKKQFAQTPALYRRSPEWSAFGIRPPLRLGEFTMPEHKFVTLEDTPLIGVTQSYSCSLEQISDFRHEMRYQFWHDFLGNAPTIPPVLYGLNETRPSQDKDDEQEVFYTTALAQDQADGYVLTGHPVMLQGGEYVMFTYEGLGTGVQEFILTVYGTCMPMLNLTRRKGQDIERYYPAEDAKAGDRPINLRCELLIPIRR

Structure (SMILES)	EC50 [1] [µM]	EC50 for SoxS compared with ARD [2]	further results
COc1ccc(/C=C/C(=O)Nc2ccc(-c3nc4ccc([N+](=O)[O-])cc4n3O)cc2)cc1 [BCL]	5.1		
O=[N+]([O-])c1ccc2nc(-c3ccoc3)n(O)c2c1 [AOW]		higher than that of ARD	
O=C(/C=C/c1ccc(F)cc1F)Nc1ccc(-c2nc3ccc([N+](=O)[O-])cc3n2O)cc1 [BCO]	2.2		
O=C(NCc1ccc(-c2nc3ccc([N+](=O)[O-])cc3n2O)cc1)c1ccccc1 [ASS]		higher than that of ARD	
COc1cccc(-c2nc3ccc([N+](=O)[O-])cc3n2O)c1 [ANU]		higher than that of ARD	
Cc1ccccc1C(=O)Nc1ccc(-c2nc3ccc([N+](=O)[O-])cc3n2O)cc1 [BBV]	> 57.9		
CC(=O)c1ccc(C(=O)Nc2ccc(-c3nc4ccc([N+](=O)[O-])cc4n3O)cc2)cc1 [BAF]			in vivo toxicity [3]: No overt signs of toxicity
O=C(Nc1ccc(-c2nc3ccc([N+](=O)[O-])cc3n2O)cc1)c1ccc(Cl)cc1 [AST]		higher than that of ARD	
CN(C)c1ccc(-c2nc3ccc([N+](=O)[O-])cc3n2O)cc1 [ARB]		higher than that of ARD	
COc1ccc(C(=O)Nc2ccc(-c3nc4ccc([N+](=O)[O-])cc4n3O)cc2)cc1 [ASR]	18.3		
O=[N+]([O-])c1ccc2nc(-c3ccco3)n(O)c2c1 [AOX]		higher than that of ARD	
O=C(/C=C/c1ccc(F)cc1)Nc1ccc(-c2nc3ccc([N+](=O)[O-])cc3n2O)cc1 [BBP]	7.1		in vivo toxicity [3]: No overt signs of toxicity
Cc1ccc(C(=O)Nc2ccc(-c3nc4ccc([N+](=O)[O-])cc4n3O)cc2)cc1 [ATB]	15.5		EC50 [4]: 4 µM; EC50 ([2]; E. coli SoxS, DNA binding): 2.7 µM; EC50 [5]: 7.4 µM; in vivo toxicity [3]: No overt signs of toxicity
O=C(Nc1ccc(-c2nc3ccc([N+](=O)[O-])cc3n2O)cc1)c1cccc(F)c1 [BBS]	29		in vivo toxicity [3]: No overt signs of toxicity
O=C(Nc1ccc(-c2nc3ccc([N+](=O)[O-])cc3n2O)cc1)c1ccccc1 [AQQ]		higher than that of ARD	
NC(=O)c1ccc2nc(-c3ccccc3)n(O)c2c1 [APJ]		higher than that of ARD	
Cc1cccc(C(=O)Nc2ccc(-c3nc4ccc([N+](=O)[O-])cc4n3O)cc2)c1 [BBT]	27.5		
O=[N+](O)c1cccc2c1nc(-c1ccco1)n2O [AQV]		higher than that of ARD	
O=C(Nc1ccc(-c2nc3ccc([N+](=O)[O-])cc3n2O)cc1)c1ccccc1F [BBW]	> 57.3		
Cc1ccc(/C=C/C(=O)Nc2ccc(-c3nc4ccc([N+](=O)[O-])cc4n3O)cc2)cc1 [BCK]	0.8		
CCOc1ccc(C2Nc3ccccc3-c3nnc(SC)nc3O2)cc1 (stereo not drawn) [B, 6-(4-Ethoxy-phenyl)-3-methylsulfanyl-6,7-dihydro-5-oxa-1,2,4,7-tetraaza-dibenzo[a,c]cycloheptene]			MarA inhibition score (cell survival) [6]: *
O=C1C(=C2NC(c3ccccn3)C3C(=O)N(c4ccccc4)C(=O)C23)C(=O)c2ccccc21 (stereo not drawn) [AF, 4-(1,3-Dioxo-indan-2-ylidene)-2-phenyl-6-pyridin-2-yl-tetrahydro-pyrrolo[3,4-c]pyrrole-1,3-dione]			MarA inhibition score (cell survival) [6]: **
N#Cc1ccc(C(=O)Nc2ccc(-c3nc4ccc([N+](=O)[O-])cc4n3O)cc2)cc1 [BAB]			in vivo toxicity [3]: No overt signs of toxicity
O=C1C(=C2NC(c3ccccn3)C3C(=O)N(c4ccccc4)C(=O)C23)C(=O)c2ccccc21 (stereo not drawn) [BB, 4-(1,3-dioxo-1,3-dihydro-2H-inden-2-yliden)-2-phenyl-6-(2-pyridinyl)tetrahydro pyrrolo[3,4-c]pyrrole-1,3(2H,3aH)-dione]			MarA inhibition score (cell survival) [6]: *
